Test results: patent US8211890B2, “5-amino-2-(1-hydroxy-ethyl)-tetrahydropyran derivatives” (Actelion Pharmaceuticals, priority 2008, dated 2012)

What was measured:
[1] = system: S. aureus A798; experiment: Bacterial growth minimal inhibitory concentrations (microdilution, cation-adjusted Mueller-Hinton Broth); assay type: cell-based; settings: for MIC: Staphylococcus aureus
Description: Minimal inhibitory concentrations (MICs; mg/l) were determined in cation-adjusted Mueller-Hinton Broth by a microdilution method following the description given in “Methods for Dilution Antimicrobial Susceptibility Tests for Bacteria that Grow Aerobically”, Approved standard, 7th ed., Clinical and Laboratory Standards Institute (CLSI) Document M7-A7, Wayne, Pa., USA, 2006.

[2] = molecular target: hERG K+ channel (Homo sapiens, UniProt Q12809); experiment: In vitro blocking of hERG K+ channels (QPatch automated patch-clamp, CHO-K1 cells); assay type: cell-based; settings: pH 7.4, at 10 μM, CHOhERG cells, 4 minutes of stimulation, average block on two cells
Chain of hERG K+ channel (Q12809 whole entry): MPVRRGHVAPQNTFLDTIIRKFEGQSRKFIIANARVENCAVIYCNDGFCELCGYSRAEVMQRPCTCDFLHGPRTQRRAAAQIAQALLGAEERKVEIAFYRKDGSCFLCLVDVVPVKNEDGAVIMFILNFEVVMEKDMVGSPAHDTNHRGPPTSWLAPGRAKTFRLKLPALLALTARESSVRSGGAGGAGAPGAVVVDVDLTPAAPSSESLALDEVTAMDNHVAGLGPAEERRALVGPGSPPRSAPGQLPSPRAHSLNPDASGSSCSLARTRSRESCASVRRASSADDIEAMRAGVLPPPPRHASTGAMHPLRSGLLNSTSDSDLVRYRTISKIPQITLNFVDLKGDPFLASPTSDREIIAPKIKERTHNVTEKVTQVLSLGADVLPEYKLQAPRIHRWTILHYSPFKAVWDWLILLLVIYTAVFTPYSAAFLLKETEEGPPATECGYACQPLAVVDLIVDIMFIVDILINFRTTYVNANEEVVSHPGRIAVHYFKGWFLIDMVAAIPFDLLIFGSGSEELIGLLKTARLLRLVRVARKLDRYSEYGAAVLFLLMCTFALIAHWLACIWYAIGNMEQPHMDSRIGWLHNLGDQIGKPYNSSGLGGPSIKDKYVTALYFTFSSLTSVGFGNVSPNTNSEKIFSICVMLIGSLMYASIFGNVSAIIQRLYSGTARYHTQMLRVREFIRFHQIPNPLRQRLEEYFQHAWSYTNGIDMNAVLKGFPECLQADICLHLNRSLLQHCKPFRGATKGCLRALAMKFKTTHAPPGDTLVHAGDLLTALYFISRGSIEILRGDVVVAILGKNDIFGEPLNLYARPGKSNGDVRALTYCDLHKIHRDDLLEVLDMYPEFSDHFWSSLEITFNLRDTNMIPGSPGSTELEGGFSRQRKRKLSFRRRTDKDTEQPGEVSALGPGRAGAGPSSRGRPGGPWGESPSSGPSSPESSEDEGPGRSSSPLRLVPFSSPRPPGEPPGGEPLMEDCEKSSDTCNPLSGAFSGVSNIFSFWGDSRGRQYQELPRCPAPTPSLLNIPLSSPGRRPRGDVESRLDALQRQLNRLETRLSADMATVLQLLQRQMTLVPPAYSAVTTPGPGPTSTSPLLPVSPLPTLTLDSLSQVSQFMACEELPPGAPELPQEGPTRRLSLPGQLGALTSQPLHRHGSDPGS
Description: hERG K^+ channels have been cloned from human heart and recombinant channels are stably expressed in CHO-K1 cells (CHOhERG). These cells have been purchased from bSys GmbH (CH-4052 Basel, Switzerland) and are grown in 150 mL culture flasks at 37° C. in 5% CO2. When the cells are ˜100% confluent, they are detached with 0.25% trypsin-EDTA solution and placed in the cell preparation unit of a QPatch automated patch-clamp robot (Sophion Bioscience A/S, 2750 Ballerup, Denmark). Currents through the hERG K^+ channels (IKhERG) are elicited using the following buffer solutions and voltage protocol: • extracellular solution (in mM): [NaCl]=150; [KCl]=4; [CaCl2]=1.2; [MgCl2]=1; [HEPES]=10; pH adjusted to 7.4 with NaOH; • intracellular solution (in mM): [KCl]=140; [NaCl]=10; [MgCl2]=1; [HEPES]=10; [EGTA]=5; [Mg-ATP]=5; […] After the cells have stabilized for a few minutes and the currents are steady, the amplitude of IKhERG is recorded under control conditions. Thereafter, the QPatch robot applies the test compound to the cell at the test concentration and, after 4 minutes of stimulation, the amplitude of IKhERG is recorded under test conditions. The ratio of the two amplitudes is used to define a fractional block and the average block on two cells is used to provide the effect of a given concentration (e.g. 10 μM). If, for a given test compound, a sufficient number of concentrations were tested, an apparent IC50 for inhibition of IKhERG is calculated.

[3] = comparison table of compounds of formula ICOMP

Row | MIC ([1]; microdilution) [mg/L] | MIC for S. aureus A798 [1, 3] | MIC [1, 3] [mg/L] | Compound | inhibition at 4 min, 10 µM [2] [%]
1 | ≤ 0.031 | ≦0.031 mg/l | – | COc1ccc2nccc(C[C@H](O)[C@@H]3CC[C@@H](NCc4cc5c(cn4)OCCO5)CO3)c2n1 [Example 1, (1S)-1-{(2S,5R)-5-[(2,3-dihydro-[1,4]dioxino[2,3-c]pyridin-7-ylmethyl)-amino]tetrahydro-pyran-2-yl}-2-(6-methoxy-[1,5]naphthyridin-4-yl)-ethanol] | 26
2 | – | – | ≤ 0.031 | COc1ccc2ncc(F)c(CCC3CCC(NCc4cc5c(cn4)OCCO5)CO3)c2n1 (centres unmarked) [Reference Example No. 1, reference compound] | 77
